The values below are quoted from earlier work in patent US7618650B2, “Combination of a hypnotic agent and substituted bis aryl and heteroaryl compound and therapeutic application thereof” (Aventis Pharmaceuticals Inc, priority 2005, dated 2009).

For this series the following is noted: average dosage between 5 and 10 mg in a conventional formulation.

Consider `Cc1ccc(-c2nc3ccc(C)cn3c2CC(=O)N(C)C)cc1` [Zolpidem, zolpidem], for which the “half life, average value” is listed as “about 2.4 hours”.
